Laboratory results: the supplement of paper PMC4862054

Assays:
Assay in all cases: drug sensitivity score (DSS), CellTiter-Blue viability (DSS (AUC-based score)); higher = stronger viability inhibition; extreme values may be limits of the assay
Details in all cases: incubation time: 72 h
MDA-MB-436 = test system: MDA-MB-436
Procedure: (§1)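 DSRT with the CellTiter-Blue (resazurin reduction) viability readout, fluorescence 560/590 nm, 72 h incubation. Plates were normalised to DMSO and benzethonium chloride controls. DSS is computed from the area under the fitted dose-response curve (5 or 9 concentrations).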

MDA-MB-231 = test system: MDA-MB-231
Procedure: as §1

DU-4475 = test system: DU-4475
Procedure: as §1

CAL-51 = test system: CAL-51
Procedure: as §1

CAL-85-1 = test system: CAL-85-1
Procedure: as §1

MDA-MB-468 = test system: MDA-MB-468
Procedure: as §1

MFM-223 = test system: MFM-223
Procedure: as §1

HCC1937 = test system: HCC1937
Procedure: as §1

HCC1599 = test system: HCC1599
Procedure: as §1

Hs578T = test system: Hs578T
Procedure: as §1

SK-BR-3 = test system: SK-BR-3
Procedure: as §1

HCC1143 = test system: HCC1143
Procedure: as §1

HDQ-P1 = test system: HDQ-P1
Procedure: as §1

BT-474 = test system: BT-474
Procedure: as §1

MDA-MB-453 = test system: MDA-MB-453
Procedure: as §1

BT-549 = test system: BT-549
Procedure: as §1

CAL-120 = test system: CAL-120
Procedure: as §1

CAL-148 = test system: CAL-148
Procedure: as §1

SMILES	drug sensitivity score (MDA-MB-436)	drug sensitivity score (MDA-MB-231)	drug sensitivity score (DU-4475)	drug sensitivity score (CAL-51)	drug sensitivity score (CAL-85-1)	drug sensitivity score (MDA-MB-468)	drug sensitivity score (MFM-223)	drug sensitivity score (HCC1937)	drug sensitivity score (HCC1599)	drug sensitivity score (Hs578T)	drug sensitivity score (SK-BR-3)	drug sensitivity score (HCC1143)	drug sensitivity score (HDQ-P1)	drug sensitivity score (BT-474)	drug sensitivity score (MDA-MB-453)	drug sensitivity score (BT-549)	drug sensitivity score (CAL-120)	drug sensitivity score (CAL-148)
Cc1ccc(C(=O)N(CCCN)[C@@H](c2oc3cc(Cl)ccc3c(=O)c2Cc2ccccc2)C(C)C)cc1	13.4	31.2	20.2	20.1	19.9	23.8	18.1	29.8	0	25.7	31.6	19.5	10.1	21.6	21.5	24.4	27.6	23.3
NC(=O)Nc1cc(-c2cccc(F)c2)sc1C(=O)N[C@H]1CCCNC1 [AZD 7762]	5.44	1.83	2.46	2.84	6.01	2.52	0	2.04	5.69	5.73	4.87	1.6	3.34	0	5.94	1.54	2.17	2.2
CO[C@H]1/C=C\C=C(/C)C(=O)NC2=CC(=O)C(NCCN(C)C)=C(C[C@@H](C)C[C@H](OC)[C@H](O)[C@@H](C)/C=C(\C)[C@@H]1OC(N)=O)C2=O [Alvespimycin]	16.1	12.2	21.9	14	13.7	10.4	18.7	17.2	10.5	16.5	20.9	11.5	13.8	14.6	22.6	20	15.3	16.9
CCC1(c2ccc(N)cc2)CCC(=O)NC1=O (stereo unspecified) [Aminoglutethimide]	0	0	0	0	0	0	0	0	0	0	0	0	0	0	0	0	0	0
NCC(=O)CCC(=O)O [Aminolevulinic acid]	0	0	0	0	0	0	0	0	0	0	0	0	0	0	0	0	0	0
CCN(CCCOc1ccc2c(Nc3cc(CC(=O)Nc4cccc(F)c4)[nH]n3)ncnc2c1)CCOP(=O)(O)O [Barasertib]	0	3.7	4.75	8.86	4.42	12.1	0	9.75	0	7.48	0	0	0	0	11.8	5.75	8.21	20.5
Cn1c(CCCC(=O)O)nc2cc(N(CCCl)CCCl)ccc21 [Bendamustine]	0	0	0	0	0	0	0	0	0	0	0.0662	0	0	0	0	0	0	0
C=C(c1ccc(C(=O)O)cc1)c1cc2c(cc1C)C(C)(C)CCC2(C)C [Bexarotene]	0	0	0	0	0	0	0	2.11	0	0	0	0	0	0	0	0	0	1.2
CC(=O)Nc1ccc(C(=O)Nc2ccccc2N)cc1 [CI-994]	0	0	0	0	0	0	0	0	0	0	0	0	0	0	0	0	0	0
COc1cc2nccc(Oc3ccc(NC(=O)C4(C(=O)Nc5ccc(F)cc5)CC4)cc3)c2cc1OC [Cabozantinib]	0	0	0	0	0	0	0	0	0	0	0	0	0	0	1.25	0	0	0.402
N.N.[Cl][Pt][Cl] [Cisplatin]	0	0	0	0	0	0	0	0	0	0	0	0	0	0	0	0	0	0
C[C@@H](Oc1cc(-c2cnn(C3CCNCC3)c2)cnc1N)c1c(Cl)ccc(F)c1Cl [Crizotinib]	14.8	9.17	3.43	4.08	3.39	4.88	4.74	6.92	0	1.65	4.22	2.03	1.42	5.02	8.6	1.89	6.42	2.67
CN(C)/N=N/c1[nH]cnc1C(N)=O [Dacarbazine]	0	0	0	0	0	0	0	0	0	0	0	0	0	0	0	0	0	0
Cc1ccc(-n2nc(C(C)(C)C)cc2NC(=O)Nc2ccc(OCCN3CCOCC3)c3ccccc23)cc1 [Doramapimod]	0	0	0	0	6.15	0	0	0	0	0	0	0	0	0	0	0	0	0
C#Cc1cccc(Nc2ncnc3cc(OCCOC)c(OCCOC)cc23)c1 [Erlotinib]	2.82	0	0	0	8.53	5.57	0	4.19	3.83	0	3.78	0	7.17	4.23	2.55	0	3.43	5.88
COc1cc([C@@H]2c3cc4c(cc3[C@@H](O[C@@H]3O[C@@H]5CO[C@@H](C)O[C@H]5[C@H](O)[C@H]3O)[C@H]3COC(=O)[C@H]23)OCO4)cc(OC)c1O [Etoposide]	3.41	3.4	19.8	14.5	2.33	6.16	0	6.25	2.06	5.23	11.9	7.4	3.32	0.298	0	11	4.94	10.3
C[C@]12CC[C@@H]3c4ccc(O)cc4C[C@@H](CCCCCCCCC[S+]([O-])CCCC(F)(F)C(F)(F)F)[C@H]3[C@@H]1CC[C@@H]2O (stereo partly specified) [Fulvestrant]	0	0	0	0	0	0	1.05	0	0	0	0	0	0	0	0	0	0	0
O=P1(NCCCl)OCCCN1CCCl (stereo unspecified) [Ifosfamide]	0	0	0	0	0	0	0	0	0	0	0	0	0	0	0	0	0	0
CC(C)Cn1cnc2c(N)nc3ccccc3c21 [Imiquimod]	0	0	0	0	0	0	0	0	0	0	0	0	0	0	0.443	0	0	0
CC1(C)NC(=O)N(c2ccc([N+](=O)[O-])c(C(F)(F)F)c2)C1=O [Nilutamide]	0	0	0	0	0	0	0	0	0	0	0	0	0	0	0	0	0	0
Cc1ccc(C(=O)Nc2ccc(CN3CCN(C)CC3)c(C(F)(F)F)c2)cc1C#Cc1cnc2cccnn12 [Ponatinib]	0	7.46	0	3.79	0	0	14.6	0	2.44	0.512	0	0	4.79	0	5.67	0.903	7.25	0.922
Cn1c(Nc2ccc(C(F)(F)F)cc2)nc2cc(Oc3ccnc(-c4ncc(C(F)(F)F)[nH]4)c3)ccc21 [RAF265]	2.55	4.5	3.23	3.43	0	0.566	5.45	4.12	0	1.15	0	7.68	9.94	0	0	5.55	6.51	0
